Series [1] deals with RAW264.7. Briefly: Cytotoxicity against mouse RAW264.7 cells assessed as cell destruction at 5 uM incubated for 48 hrs by MTT assay. The note with it: raw264.7, 48 h. Format: toxicity, cell-based.
For series [2], the system named is RAW264.7. As to the kind of experiment: Inhibition of RANKL-induced osteoclast differentiation in mouse RAW264.7 cells at 5 uM incubated for 4 days with media replacement for every 2 days by TRAP-staining based light microscopic analysis. Format: functional, cell-based. Particulars: time 4.0 day.

The structures appear in SMILES notation. Activity calls are given as the source filed them. The rule behind the calls is not given here.

As for `Cc1cc(Cl)ccc1NC(=O)C([Se]c1ccccc1)C(C)(C)OCC(F)(F)F` (configuration not stated), the Activity entry in the series with RAW264.7 [1] is “Non-Toxic”. The inhibition entry in the series with RAW264.7 [2] was “Active”.

On to `CC(C)(OCC(F)(F)F)C([Se]c1cccc(Br)c1)C(=O)Nc1ccccc1` (configuration not stated), for which the Activity result in the series on RAW264.7 [1] was “Non-Toxic”. For the same compound, the inhibition entry in the series with RAW264.7 [2] was “Active”.

`Cc1cc(NC(=O)C([Se]c2ccccc2)C(C)(C)OCC(F)(F)F)ccn1` (configuration not stated): in the series with RAW264.7 [1], the Activity entry is given as “Non-Toxic”.

For `COc1ccccc1NC(=O)C([Se]c1ccccc1)C(C)(C)OCC(F)(F)F` (configuration not stated), the Activity entry with RAW264.7 [1] is reported as “Non-Toxic”. For the same compound, the inhibition entry with RAW264.7 [2] is “Active”.

Take `COc1ncccc1[Se]C(C(=O)Nc1ccccc1)C(C)(C)OCC(F)(F)F` (configuration not stated): in the series on RAW264.7 [1], the Activity result was “Non-Toxic”. In the series with RAW264.7 [2], the inhibition entry is “Active”.

As for `CCCC[Se]C(C(=O)Nc1ccccc1)C(C)(C)OCC(F)(F)F` (configuration not stated), the Activity result with RAW264.7 [1] is on record as “Non-Toxic”. In addition, the inhibition result in the series with RAW264.7 [2] is “Active”.

Take `CCOC(C)(C)C([Se]c1ccccc1)C(=O)Nc1ccccc1` (configuration not stated): the Activity entry with RAW264.7 [1] is on record as “Non-Toxic”.

With `CC(C)(OCC(F)(F)F)C([Se]c1ccccc1)C(=O)Nc1cccc(Cl)c1` (configuration not stated), in the series with RAW264.7 [1], the Activity entry is on record as “Non-Toxic”. In addition, the inhibition result in the series on RAW264.7 [2] is “Active”.

For `COc1ccc([Se]C(C(=O)Nc2ccncc2)C(C)(C)OCC(F)(F)F)cc1` (configuration not stated), in the series on RAW264.7 [1], the Activity entry is on record as “Non-Toxic”.

On to `CC(C)(OCC(F)(F)F)C([Se]c1ccccc1)C(=O)Nc1cccc(F)c1` (configuration not stated), for which the Activity entry in the series with RAW264.7 [1] was “Non-Toxic”. Also, the inhibition result with RAW264.7 [2] is “Active”.

Regarding `CC(C)(OCC(F)(F)F)C([Se]c1ccccc1)C(=O)Nc1ccc(I)cc1` (configuration not stated), the Activity result with RAW264.7 [1] is recorded as “Non-Toxic”. Besides, the inhibition entry with RAW264.7 [2] was “Active”.

`Cc1ccccc1NC(=O)C([Se]c1ccccc1)C(C)(C)OCC(F)(F)F` (configuration not stated): the Activity result in the series with RAW264.7 [1] is given as “Non-Toxic”. The inhibition entry in the series on RAW264.7 [2] was “Active”.

With `CC(C)(OCC(F)(F)F)C([Se]c1ccc(Br)cc1)C(=O)Nc1ccccc1` (configuration not stated), in the series with RAW264.7 [1], the Activity entry is “Non-Toxic”. For the same compound, the inhibition result with RAW264.7 [2] was “Active”.

For `Cc1ccccc1[Se]C(C(=O)Nc1ccccc1)C(C)(C)OCC(F)(F)F` (configuration not stated), the Activity entry with RAW264.7 [1] is given as “Non-Toxic”.

Consider `Cc1cnccc1NC(=O)C([Se]c1ccccc1)C(C)(C)OCC(F)(F)F` (configuration not stated), for which, in the series on RAW264.7 [1], the Activity result was “Non-Toxic”.

Turning to `COc1ccc([Se]C(C(=O)Nc2ccccc2)C(C)(C)OCC(F)(F)F)cc1` (configuration not stated), the Activity result in the series with RAW264.7 [1] is on record as “Non-Toxic”. Moreover, the inhibition result in the series with RAW264.7 [2] was “Active”.

On to `CC(C)(OCC(F)(F)F)C([Se]c1ccc2c(c1)OCO2)C(=O)Nc1ccccc1` (configuration not stated), for which the Activity entry in the series on RAW264.7 [1] is reported as “Non-Toxic”. The inhibition entry with RAW264.7 [2] was “Active”.

Turning to `CC(C)(OCC(F)(F)F)C([Se]c1ccccc1Cl)C(=O)Nc1ccccc1` (configuration not stated), the Activity entry in the series on RAW264.7 [1] was “Non-Toxic”. In the series on RAW264.7 [2], the inhibition entry was “Active”.

Take `CC(C)(OCC(F)(F)F)C([Se]c1ccccc1)C(=O)Nc1ccccn1` (configuration not stated): the Activity entry in the series on RAW264.7 [1] was “Non-Toxic”.

`COc1cc(NC(=O)C([Se]c2ccccc2)C(C)(C)OCC(F)(F)F)ccn1` (configuration not stated): in the series on RAW264.7 [1], the Activity result is “Non-Toxic”.

Turning to `CC(C)(OCC(F)(F)F)C([Se]c1ccccc1)C(=O)Nc1cccnc1` (configuration not stated), the Activity entry in the series on RAW264.7 [1] is “Non-Toxic”.

Turning to `CC(C)(OCC(F)(F)F)C([Se]c1ccccc1)C(=O)NC1CCCCC1` (configuration not stated), the Activity entry in the series on RAW264.7 [1] is reported as “Non-Toxic”. For the same compound, in the series with RAW264.7 [2], the inhibition entry is “Active”.

With `CC(C)(OCC(F)(F)F)C([Se]c1ccccc1)C(=O)Nc1ccccc1F` (configuration not stated), in the series on RAW264.7 [1], the Activity result is “Non-Toxic”.

In the case of `Cc1ccc([Se]C(C(=O)Nc2ccccc2)C(C)(C)OCC(F)(F)F)cc1` (configuration not stated), the Activity result in the series with RAW264.7 [1] is “Non-Toxic”. Also, the inhibition entry in the series on RAW264.7 [2] was “Active”.

In the case of `CC(C)(OCC(F)(F)F)C([Se]c1cccc(F)c1)C(=O)Nc1ccccc1` (configuration not stated), the Activity entry with RAW264.7 [1] is on record as “Non-Toxic”. In addition, the inhibition entry in the series on RAW264.7 [2] was “Active”.

On to `COc1ccccc1[Se]C(C(=O)Nc1ccccc1)C(C)(C)OCC(F)(F)F` (configuration not stated), for which the Activity result with RAW264.7 [1] is “Non-Toxic”. For the same compound, the inhibition result in the series with RAW264.7 [2] was “Active”.

As for `Cc1cccc([Se]C(C(=O)Nc2ccccc2)C(C)(C)OCC(F)(F)F)c1` (configuration not stated), the Activity entry with RAW264.7 [1] is reported as “Non-Toxic”. The inhibition entry in the series with RAW264.7 [2] was “Active”.

`CC(C)(OCC(F)(F)F)C([Se]c1ccccc1)C(=O)Nc1ccc(Br)cc1` (configuration not stated): the Activity result in the series on RAW264.7 [1] is reported as “Non-Toxic”. Besides, the inhibition result in the series on RAW264.7 [2] is “Active”.

Consider `CC(C)(OCC(F)(F)F)C([Se]c1ccccc1)C(=O)Nc1ccnc(F)c1` (configuration not stated), for which the Activity result in the series with RAW264.7 [1] is on record as “Non-Toxic”.

Turning to `CC(C)(OCC(F)(F)F)C([Se]c1ccccc1Br)C(=O)Nc1ccccc1` (configuration not stated), the Activity result with RAW264.7 [1] is reported as “Non-Toxic”. The inhibition result with RAW264.7 [2] was “Active”.

For the compound `CC(C)(OCC(F)(F)F)C([Se]c1ccccc1)C(=O)Nc1ccnc(Cl)c1` (configuration not stated), the Activity entry in the series with RAW264.7 [1] is “Non-Toxic”.

Take `COc1ccc(NC(=O)C([Se]c2ccccc2)C(C)(C)OCC(F)(F)F)cc1` (configuration not stated): the Activity entry in the series with RAW264.7 [1] is recorded as “Non-Toxic”. For the same compound, in the series on RAW264.7 [2], the inhibition entry was “Active”.

For the compound `CC(C)(OCC(F)(F)F)C([Se]c1ccc(F)cc1)C(=O)Nc1ccncc1` (configuration not stated), in the series on RAW264.7 [1], the Activity entry is “Non-Toxic”.

Consider `CC(C)(OCC(F)(F)F)C([Se]c1ccccc1)C(=O)Nc1ccnc(Br)c1` (configuration not stated), for which the Activity entry with RAW264.7 [1] is on record as “Non-Toxic”.

In the case of `CC(C)(OCC(F)(F)F)C([Se]c1ccc(F)cc1)C(=O)Nc1ccccc1` (configuration not stated), the Activity result with RAW264.7 [1] is reported as “Non-Toxic”. In addition, the inhibition result with RAW264.7 [2] was “Active”.

Take `CC(C)(OCC(F)(F)F)C([Se]c1ccccc1F)C(=O)Nc1ccccc1` (configuration not stated): the Activity result in the series with RAW264.7 [1] is recorded as “Non-Toxic”. Also, the inhibition entry with RAW264.7 [2] is “Active”.

For `CC(C)(OCC(F)(F)F)C([Se]c1ccccc1)C(=O)Nc1ccccc1` (configuration not stated), the Activity result in the series on RAW264.7 [1] was “Non-Toxic”.

In the case of `CC(C)(OCC(F)(F)F)C([Se]c1ccccc1)C(=O)Nc1cnc2ccccc2c1` (configuration not stated), the Activity result in the series on RAW264.7 [1] is listed as “Non-Toxic”. Further, the inhibition entry in the series on RAW264.7 [2] was “Active”.
